From patent publication US8808702B2, “Sulfide, sulfoxide and sulfone chalcone analogues, derivatives thereof and therapeutic uses thereof” (Temple University-of the Commonwealth System of Higher …, priority 2006, dated 2014)
Where two headings read alike, the source gives them in different places.

What was measured:
[1] = system: K562 (chronic myelogenous leukaemia); test: Effect of compounds on tumor cell lines (assay of Latham et al.), K562; type: cell-based; conditions: K562 cells, read-out: K 562 potency (IC50)
In short: (§1)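 K562 or DU145 cells plated at 2.5×10^4 cells/well, treated 24 h later with compound in DMSO at 1 μM to 100 μM (0.1 μM to 100 μM for one compound). Activity judged by microscopic observation after 96 h; where needed, viable cells counted by trypan blue exclusion.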

DU145 (prostate cancer) = test: Effect of compounds on tumor cell lines (assay of Latham et al.), DU145; type: cell-based; conditions: DU145 cells, read-out: DU 145 potency (IC50)
In short: as §1

[2] = Table 1, examined 96 hours after treatment, 1 μM to 100 μM in DMSO
[3] = 96 hours after treatment, 1 μM to 100 μM
[4] = Table 4, examined 96 hours after treatment, 1 μM to 100 μM in DMSO

Structure (SMILES) | IC50 [1, 2] [µM] | IC50 (DU145 (prostate cancer); [2]) [µM] | IC50 [1, 3] [µM] | IC50 (DU145 (prostate cancer); [3]) [µM] | further results
O=C(C(=Cc1ccccc1OCc1ccccc1)Sc1ccc(Br)cc1)c1ccc(Cl)cc1 [Example 21] | 10 to 25 | 10 to 25 | – | – | –
CCOc1ccc(C=C(SCc2ccc(Cl)c(Cl)c2)C(=O)c2ccc(Cl)cc2)cc1OC [Example 143] | – | – | 1 to 10 | 25 to 50 | –
CCN(CC)CCNC(=O)c1c(C)[nH]c(/C=C(/SCc2ccc(Br)cc2)C(=O)c2ccc(C(=O)O)cc2)c1C [Example 163] | – | – | 50 to 100 | 50 to 100 | –
O=C(C(=Cc1ccc(Br)cc1)SCc1ccc(F)cc1)c1ccc(Cl)cc1 [Example 254] | – | – | 1 to 10 | 10 to 25 | –
CSc1ccc(C=C(SCc2ccc(Cl)cc2)C(=O)c2ccc(Cl)cc2)cc1 [Example 224] | – | – | 1 to 10 | 25 to 50 | –
Cc1ccc(SC(=Cc2ccc(O)c([N+](=O)[O-])c2)C(=O)c2ccc(Cl)cc2)cc1 [Example 96] | 25 to 50 | 10 to 25 | – | – | –
Cc1ccc(CSC(=Cc2ccc(C)s2)C(=O)c2ccc(Cl)cc2)cc1 [Example 298] | – | – | 50 to 100 | 50 to 100 | –
Cc1ccc(C=C(SCc2ccc(Cl)cc2)C(=O)c2ccc(Cl)cc2)s1 [Example 230] | – | – | 50 to 100 | 50 to 100 | –
O=C(C(=Cc1c[nH]c2ccccc12)Sc1ccc(Br)cc1)c1ccc(Br)cc1 [Example 31] | 1 to 10 | 1 to 10 | – | – | –
O=C(C(=Cc1ccc(O)cc1O)SCc1ccc(Cl)cc1)c1ccc(Cl)cc1 [Example 196] | – | – | 50 to 100 | 50 to 100 | –
O=C(O)c1ccc(C(=O)C(=Cc2ccc(O)c(Br)c2)SCc2ccc(Br)cc2)cc1 [Example 150] | – | – | 25 to 50 | 25 to 50 | –
O=C(C(=Cc1ccc(O)c([N+](=O)[O-])c1)Sc1ccccc1Br)c1ccc(Cl)cc1 [Example 11] | 10 to 25 | 25 to 50 | – | – | –
O=C(C(=Cc1ccc(O)cc1)SCc1ccc(Cl)cc1)c1ccc(Br)cc1 [Example 221] | – | – | 1 to 10 | 10 to 25 | –
Cc1ccc(CSC(=Cc2ccc(Cl)cc2)C(=O)c2ccc(Cl)cc2)cc1 [Example 288] | – | – | 1 to 10 | 10 to 25 | –
COc1ccc(C=C(Sc2ccc(Br)cc2)C(=O)c2ccc(Cl)cc2)cc1 [Example 48] | 1 to 10 | 50 to 100 | – | – | –
O=C(C(=Cc1ccc([N+](=O)[O-])cc1)SCc1ccc(Br)cc1)c1ccc(Br)cc1 [Example 320] | – | – | 1 to 10 | 1 to 10 | –
Cc1ccc(SC(=Cc2cc(C)cc(C)c2)C(=O)c2ccc(Cl)cc2)cc1 [Example 78] | 25 to 50 | 50 to 100 | – | – | –
N#Cc1ccc(C(=O)C(=Cc2ccc([N+](=O)[O-])c(O)c2)SCc2ccc(Br)cc2)cc1 [Example 157] | – | – | 1 to 10 | 1 to 10 | –
O=C(C(=Cc1ccc(F)cc1F)Sc1ccc(Br)cc1)c1ccc(Cl)cc1 [Example 18] | 1 to 10 | 1 to 10 | – | – | –
COc1ccc(C=C(SCc2ccc(Cl)cc2)C(=O)c2ccc(Cl)cc2)cc1O [Example 204] | – | – | ≤ 1 | 1 to 10 | –
O=C(O)c1ccc(C(=O)/C(=C\c2ccc(Br)c([N+](=O)[O-])c2)SCc2ccc(Br)cc2)cc1 [Example 165] | – | – | 1 to 10 | 1 to 10 | –
O=C(/C(=C\c1ccc([N+](=O)[O-])c(O)c1)SCc1ccc(Br)cc1)c1ccc(C(F)(F)F)cc1 [Example 160] | – | – | 1 to 10 | 1 to 10 | –
O=C(O)c1ccc(C(=O)/C(=C\c2ccc(F)c([N+](=O)[O-])c2)SCc2ccc(Br)cc2)cc1 [Example 172] | – | – | 1 to 10 | 1 to 10 | –
O=C(C(=Cc1cc(Cl)c(O)c(Cl)c1)SCc1ccc(Br)cc1)c1ccc(Br)cc1 [Example 148] | – | – | 10 to 25 | 10 to 25 | –

Structure (SMILES) | IC50 [1, 2] [µM] | IC50 (DU145 (prostate cancer); [2]) [µM] | IC50 [1, 3] [µM] | IC50 (DU145 (prostate cancer); [3]) [µM] | further results
O=C(C(=Cc1ccc(O)c([N+](=O)[O-])c1)Sc1ccc(Br)cc1)c1ccc(Br)cc1 [Example 43] | 1 to 10 | 1 to 10 | – | – | –
COc1cc(/C=C(/SCc2ccc(Br)cc2)C(=O)c2ccc(Br)cc2)cc([N+](=O)[O-])c1O [Example 174] | – | – | 25 to 50 | 25 to 50 | –
Cc1ccc(SC(=Cc2ccc(Cl)cc2)C(=O)c2ccc(Br)cc2)cc1 [Example 90] | 1 to 10 | 10 to 25 | – | – | –
CCOc1ccc(C=C(SCc2ccccc2Cl)C(=O)c2ccc(Cl)cc2)cc1OC [Example 131] | – | – | 1 to 10 | 50 to 100 | –
CCN(CC)CCNC(=O)c1c(C)[nH]c(/C=C(\C(=O)c2ccc(Br)cc2)S(=O)(=O)Cc2ccc(Br)cc2)c1C [Example 370] | – | – | – | – | IC50 [1, 4]: 1 to 10 µM; IC50 (DU145 (prostate cancer); [4]): 1 to 10 µM
Cc1ccc(C=C(Sc2ccc(F)cc2)C(=O)c2ccc(Cl)cc2)s1 [Example 60] | 25 to 50 | 25 to 50 | – | – | –
COc1ccc(C=C(SCc2ccc(F)cc2)C(=O)c2ccc(C(=O)O)cc2)cc1O [Example 244] | – | – | 1 to 10 | 10 to 25 | –
O=C(O)c1ccc(C(=O)/C(=C\c2ccc(Br)cc2)SCc2ccc(F)cc2)cc1 [Example 334] | – | – | > 100 | > 100 | –
CSc1ccc(/C=C(/SCc2ccc(Br)cc2)C(=O)c2ccc(C(=O)O)cc2)cc1 [Example 188] | – | – | 25 to 50 | 25 to 50 | –
COc1ccccc1C=C(SCc1ccccc1F)C(=O)c1ccc(Cl)cc1 [Example 133] | – | – | 1 to 10 | 10 to 25 | –
O=C(C(=Cc1ccc(F)c([N+](=O)[O-])c1)SCc1ccc(Br)cc1)c1ccc(C(=O)N2CCN(c3ccc(C(F)(F)F)cn3)CC2)cc1 [Example 315] | – | – | 1 to 10 | 1 to 10 | –
CN1CCN(CCNc2ccc(C=C(SCc3ccc(F)cc3)C(=O)c3ccc(F)cc3)cc2[N+](=O)[O-])CC1 [Example 329] | – | – | ≤ 1 | 1 to 10 | –
Cc1cc(C)cc(C=C(Sc2ccc(Br)cc2)C(=O)c2ccc(Cl)cc2)c1 [Example 26] | 1 to 10 | 10 to 25 | – | – | –
Cc1ccc(SC(=Cc2c[nH]c3ccccc23)C(=O)c2ccc(Br)cc2)cc1 [Example 80] | 10 to 25 | 10 to 25 | – | – | –
O=C(C(=Cc1ccc([N+](=O)[O-])c(O)c1)SCc1ccc(Br)cc1)c1c(F)c(F)c(F)c(F)c1F [Example 152] | – | – | 1 to 10 | 10 to 25 | –
COc1cc(OC)c(C=C(SCc2ccc(F)cc2)C(=O)c2ccc(Br)cc2)c(OC)c1 [Example 233] | – | – | 1 to 10 | 1 to 10 | –
O=C(C(=Cc1ccc(O)cc1O)Sc1ccccc1Br)c1ccc(Br)cc1 [Example 6] | 50 to 100 | 50 to 100 | – | – | –
O=C(C(=Cc1c(O)cc(O)cc1O)Sc1ccccc1Br)c1ccc(Cl)cc1 [Example 5] | > 100 | > 100 | – | – | –
O=C(C(=Cc1ccc([N+](=O)[O-])c(O)c1)SCc1ccc(Br)cc1)c1ccc([N+](=O)[O-])cc1 [Example 158] | – | – | 1 to 10 | 1 to 10 | –
O=C(C(=Cc1ccc(Br)cc1)SCc1ccc(F)cc1)c1ccc(Br)cc1 [Example 253] | – | – | 1 to 10 | 25 to 50 | –
Cc1ccc(SC(=Cc2ccc(Cl)cc2Cl)C(=O)c2ccc(Cl)cc2)cc1 [Example 71] | 25 to 50 | 10 to 25 | – | – | –
Cc1ccsc1C=C(SCc1ccccc1F)C(=O)c1ccc(Cl)cc1 [Example 134] | – | – | 50 to 100 | 50 to 100 | –
Cc1ccc(S(=O)(=O)Oc2ccc(C(=O)/C(=C\c3ccc(F)c([N+](=O)[O-])c3)SCc3ccc(F)cc3)cc2)cc1 [Example 336] | – | – | 1 to 10 | 1 to 10 | –
COc1ccccc1C=C(Sc1ccc(C)cc1)C(=O)c1ccc(Cl)cc1 [Example 75] | 10 to 25 | 25 to 50 | – | – | –
